In US20260262643A1, “HERBICIDAL BENZOXAZINES” (FMC CORPORATION, priority 2022, published 2026):

How the values were obtained:
pigweed, palmer [1] = assay: Test C postemergence; type: in vivo, Amaranthus palmeri; conditions: 10 days
Method in brief: (§1)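 Greenhouse herbicide screen, 10-day duration. Test chemicals in solvent/surfactant blend were sprayed onto soil at sowing (pre) or onto 2–10 cm seedlings at one to two leaves (post); injury scored visually against controls, 0 no effect to 100 complete control.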

blackgrass [2] = assay: Test C postemergence; type: in vivo, Alopecurus myosuroides; conditions: 10 days
Method in brief: as §1

green foxtail [3] = assay: Test C postemergence; type: in vivo, Setaria viridis; conditions: 10 days
Method in brief: as §1

ragweed [4] = assay: Test C preemergence; type: in vivo, Ambrosia artemisiifolia; conditions: 0 to 100 scale (0 no effect, 100 complete control)
Method in brief: as §1

green foxtail [5] = assay: Test C preemergence; type: in vivo, Setaria viridis; conditions: 0 to 100 scale (0 no effect, 100 complete control)
Method in brief: as §1

kochia [6] = assay: Test C postemergence; type: in vivo, Bassia scoparia; conditions: 10 days
Method in brief: as §1

barnyardgrass [7] = assay: Test C preemergence; type: in vivo, Echinochloa crusgalli; conditions: 0 to 100 scale (0 no effect, 100 complete control)
Method in brief: as §1

galium = assay: Test C postemergence; type: in vivo, Galium aparine; conditions: 10 days
Method in brief: as §1

oat, wild [8] = assay: Test C preemergence; type: in vivo, Avena fatua; conditions: 0 to 100 scale (0 no effect, 100 complete control)
Method in brief: as §1

corn [9] = assay: Test C preemergence; type: in vivo, Zea mays; conditions: 0 to 100 scale (0 no effect, 100 complete control)
Method in brief: as §1

wheat [10] = assay: Test C preemergence; type: in vivo, Triticum aestivum; conditions: 0 to 100 scale (0 no effect, 100 complete control)
Method in brief: as §1

blackgrass [11] = assay: Test C preemergence; type: in vivo, Alopecurus myosuroides; conditions: 0 to 100 scale (0 no effect, 100 complete control)
Method in brief: as §1

barnyardgrass [12] = assay: Test D flooded paddy test; type: in vivo, Echinochloa crus-galli; conditions: 250 g ai/ha, applied to paddy water, visual rating after 13 to 14 days, scale 0 to 100 (0 no effect, 100 complete control)
Method in brief: (§2)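 Plants at the 2-leaf stage were grown in pots flooded to 3 cm, and compound was applied directly into the paddy water, with depth kept throughout. After 13–14 days in a greenhouse, injury was rated visually against untreated controls on a 0–100 scale (100 = complete control); a dash means not tested.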

corn [13] = assay: Test C postemergence; type: in vivo, Zea mays; conditions: 10 days
Method in brief: as §1

ryegrass, Italian [14] = assay: Test C preemergence; type: in vivo, Lolium multiflorum; conditions: 0 to 100 scale (0 no effect, 100 complete control)
Method in brief: as §1

soybean [15] = assay: Test C preemergence; type: in vivo, Glycine max; conditions: 0 to 100 scale (0 no effect, 100 complete control)
Method in brief: as §1

rice = assay: Test D flooded paddy test; type: in vivo, Oryza sativa; conditions: 250 g ai/ha, applied to paddy water, visual rating after 13 to 14 days, scale 0 to 100 (0 no effect, 100 complete control)
Method in brief: as §2

sedge, umbrella = assay: Test D flooded paddy test; type: in vivo, Cyperus difformis; conditions: 250 g ai/ha, applied to paddy water, visual rating after 13 to 14 days, scale 0 to 100 (0 no effect, 100 complete control)
Method in brief: as §2

ryegrass, Italian [16] = assay: Test C postemergence; type: in vivo, Lolium multiflorum; conditions: 10 days
Method in brief: as §1

oat, wild [17] = assay: Test C postemergence; type: in vivo, Avena fatua; conditions: 10 days
Method in brief: as §1

ducksalad = assay: Test D flooded paddy test; type: in vivo, Heteranthera limosa; conditions: 250 g ai/ha, applied to paddy water, visual rating after 13 to 14 days, scale 0 to 100 (0 no effect, 100 complete control)
Method in brief: as §2

soybean [18] = assay: Test C postemergence; type: in vivo, Glycine max; conditions: 10 days
Method in brief: as §1

ragweed [19] = assay: Test C postemergence; type: in vivo, Ambrosia artemisiifolia; conditions: 10 days
Method in brief: as §1

kochia [20] = assay: Test C preemergence; type: in vivo, Bassia scoparia; conditions: 0 to 100 scale (0 no effect, 100 complete control)
Method in brief: as §1

horseweed = assay: Test C postemergence; type: in vivo, Erigeron canadensis; conditions: 10 days
Method in brief: as §1

wheat [21] = assay: Test C postemergence; type: in vivo, Triticum aestivum; conditions: 10 days
Method in brief: as §1

pigweed, palmer [22] = assay: Test C preemergence; type: in vivo, Amaranthus palmeri; conditions: 0 to 100 scale (0 no effect, 100 complete control)
Method in brief: as §1

barnyardgrass [23] = assay: Test C postemergence; type: in vivo, Echinochloa crusgalli; conditions: 10 days
Method in brief: as §1

[24] = 125 g ai/ha, postemergence, 0 to 100 scale, 0 no effect, 100 complete control
[25] = Postemergence, 500 g ai/ha, visual 0 to 100 scale (0 no effect, 100 complete control)
[26] = Preemergence, 500 g ai/ha, visual rating after 10 days
[27] = Test C, preemergence, 125 g ai/ha

Cc1ccc(-n2cnc(C(C)C)n2)cc1C(=O)N1C[C@H](C)Oc2c(F)cccc21 [Compound 242] was tested, and the “Plant response rating, Pigweed, Palmer” value (pigweed, palmer [1]; [24]) was 80, the “Plant response rating, Pigweed, Palmer” value (pigweed, palmer [1]; [25]) was 90 and the “Plant response rating, Blackgrass” value (blackgrass [2]; [24]) was 80. For the same molecule, the “Plant response rating, Blackgrass” value (blackgrass [2]; [25]) was 100, the “Plant response rating, Foxtail, Green” value (green foxtail [3]; [24]) was 80 and the “Plant response rating, Foxtail, Green” value (green foxtail [3]; [25]) was 90. The “Plant response rating, Ragweed” value (ragweed [4]; [26]) was 100, the “Ragweed plant response rating” value (ragweed [4]; [27]) was 0 and the “Plant response rating, Foxtail, Green” value (green foxtail [5]; [26]) was 100. For the same molecule, the “Foxtail, Green plant response rating” value (green foxtail [5]; [27]) was 100, the “Plant response rating, Kochia” value (kochia [6]; [24]) was 30 and the “Plant response rating, Kochia” value (kochia [6]; [25]) was 80. For the same molecule, the “Plant response rating, Barnyardgrass” value (barnyardgrass [7]; [26]) was 100, the “Barnyardgrass plant response rating” value (barnyardgrass [7]; [27]) was 100 and the “Plant response rating, Galium” value (galium; [24]) was 100. For the same molecule, the “Plant response rating, Galium” value (galium; [25]) was 100, the “Plant response rating, Oat, Wild” value (oat, wild [8]; [26]) was 90 and the “Oat, Wild plant response rating” value (oat, wild [8]; [27]) was 90. For the same molecule, the “Plant response rating, Corn” value (corn [9]; [26]) was 70, the “Corn plant response rating” value (corn [9]; [27]) was 30 and the “Plant response rating, Wheat” value (wheat [10]; [26]) was 90. The “Wheat plant response rating” value (wheat [10]; [27]) was 60, the “Plant response rating, Blackgrass” value (blackgrass [11]; [26]) was 90 and the “Blackgrass plant response rating” value (blackgrass [11]; [27]) was 90. For the same molecule, the “Plant response rating, Barnyardgrass (Flood)” value (barnyardgrass [12]) was 55, the “Plant response rating, Corn” value (corn [13]; [24]) was 60 and the “Plant response rating, Corn” value (corn [13]; [25]) was 90. For the same molecule, the “Plant response rating, Ryegrass, Italian” value (ryegrass, Italian [14]; [26]) was 100, the “Ryegrass, Italian plant response rating” value (ryegrass, Italian [14]; [27]) was 100 and the “Plant response rating, Soybean” value (soybean [15]; [26]) was 100. The “Soybean plant response rating” value (soybean [15]; [27]) was 90, the “Plant response rating, Rice (Flood)” value (rice) was 15 and the “Plant response rating, Sedge, Umbrella (Flood)” value (sedge, umbrella) was 98. For the same molecule, the “Plant response rating, Ryegrass, Italian” value (ryegrass, Italian [16]; [24]) was 90, the “Plant response rating, Ryegrass, Italian” value (ryegrass, Italian [16]; [25]) was 100 and the “Plant response rating, Oat, Wild” value (oat, wild [17]; [24]) was 80. The “Plant response rating, Oat, Wild” value (oat, wild [17]; [25]) was 90, the “Plant response rating, Ducksalad (Flood)” value (ducksalad) was 95 and the “Plant response rating, Soybean” value (soybean [18]; [24]) was 100. For the same molecule, the “Plant response rating, Soybean” value (soybean [18]; [25]) was 100, the “Plant response rating, Ragweed” value (ragweed [19]; [24]) was 60 and the “Plant response rating, Ragweed” value (ragweed [19]; [25]) was 90. The “Plant response rating, Kochia” value (kochia [20]; [26]) was 100, the “Kochia plant response rating” value (kochia [20]; [27]) was 90 and the “Plant response rating, Horseweed” value (horseweed; [24]) was 50. For the same molecule, the “Plant response rating, Horseweed” value (horseweed; [25]) was 80, the “Plant response rating, Wheat” value (wheat [21]; [24]) was 80 and the “Plant response rating, Wheat” value (wheat [21]; [25]) was 90. For the same molecule, the “Plant response rating, Pigweed, Palmer” value (pigweed, palmer [22]; [26]) was 100, the “Pigweed, Palmer plant response rating” value (pigweed, palmer [22]; [27]) was 100 and the “Plant response rating, Barnyardgrass” value (barnyardgrass [23]; [24]) was 90. For the same molecule, the “Plant response rating, Barnyardgrass” value (barnyardgrass [23]; [25]) was 100.
